SMILES strings stand for the structures.

Data on 1 molecule can be found in patent US7763580B2, “Methods for treating conditions associated with the accumulation of excess extracellular matrix” (University of Utah Research Foundation, priority 1999, dated 2010).

In experiment [1] the test system is anti-Thy 1 glomerulonephritis. Put plainly: Glomerular production of fibronectin, PAI-1 and TGF-β1 (ELISA of cultured glomeruli). It is filed as in vivo, Sprague Dawley rats. The settings on record: enalapril alone. The procedure: Animal housing and care were in accordance with the NIH Guide for the Care and Use of Laboratory Animals, NIH Publication No. 85-23, 1985. Animals were fed a normal protein diet (22% protein, Teklad No. 86 550, Teklad Premier Laboratory Diets, Madison, Wis., USA). Glomerulonephritis was induced by tail vein injection of 2.25 mg/Kg of the monoclonal anti-Thy 1.1 antibody OX-7 (NCCC, Biovest International Inc, Minneapolis, Minn., USA). OX-7 binds to a Thy 1-like epitope on the surface of mesangial cells causing complement-dependent cell lysis followed by fibrotic tissue repair (Bagchus et al., Lab Invest. 55:680-687 (1986)). Control animals were injected with similar volumes of phosphate-buffered saline (PBS). Groups of 8 rats were assigned and treated as outlined in Table 2. Doses of enalapril above […] in drinking water are maximally effective in this model (Peters et al., Kidney Int. 54:1570-1580 (1998)). […] Fibronectin and PAI-1 synthesis were measured with modified ELISA assays according to published methods ([…] al., Anal Biochem 104:205-214 (1980)). TGF-β1 production of cultured glomeruli was measured after acid-activation using a commercially available ELISA kit (DuoSet®, R&D Systems, Minneapolis, Minn., USA) according to the manufacturer's instructions. Three samples from each rat were analyzed. […] The percent reduction in disease severity in a treated group was calculated as: […]

Experiment [2] deals with anti-Thy 1 model. The settings on record: monotherapy, anti-Thy 1 model (Peters et al.); L-arginine 1% in drinking water; cited from earlier work.
Experiment [3] relates to anti-Thy 1 glomerulonephritis. Description: Glomerular ED1+ monocyte/macrophage count. Format: in vivo, Sprague Dawley rats. Conditions: Enalapril alone, P<0.05. The procedure:
These experiments were performed on male Sprague Dawley rats (200-250 g) obtained from the Sasco colony of Charles River Laboratories (Wilmington, Mass., USA). Animal housing and care were in accordance with the NIH Guide for the Care and Use of Laboratory Animals, NIH Publication No. 85-23, 1985. Animals were fed a normal protein diet (22% protein, Teklad No. 86 550, Teklad Premier Laboratory Diets, Madison, Wis., USA). Glomerulonephritis was induced by tail vein injection of 2.25 mg/Kg of the monoclonal anti-Thy 1.1 antibody OX-7 (NCCC, Biovest International Inc, Minneapolis, Minn., USA). OX-7 binds to a Thy 1-like epitope on the surface of mesangial cells causing complement-dependent cell lysis followed by fibrotic tissue repair (Bagchus et al., Lab Invest. 55:680-687 (1986)). Control animals were injected with similar volumes of phosphate-buffered saline (PBS). […] The intensity of glomerular staining of collagen I and fibronectin was evaluated according to a 0 to 4 scale, which has been described in detail previously (Yamamoto et al., Kidney Int. 49:461-469 (1996)). The number of cells per glomerulus, staining positive for the monocyte/macrophage marker ED1, were counted. Thirty glomeruli per sample were evaluated. The mean values with standard error values were calculated. […] The percent reduction in disease severity in a treated group was calculated as: […]

`CCOC(=O)[C@H](CCc1ccccc1)N[C@@H](C)C(=O)N1CCC[C@H]1C(=O)O` [enalapril]: in experiment [1], the “reduction of fibronectin production” value was 53%. In addition, in experiment [2], the “reduction of markers of fibrotic disease” value was “about 50%”. For the same molecule, the “reduction of number of ED1+ cells” value in experiment [3] amounted to 62%.
